This assay relates to modified version of the GPR119 receptor (94% identity to human receptor). Description: cAMP production assay (LANCE cAMP kit, TR-FRET) in HEK-293 cells. Type of assay: cell-based. The conditions noted are these: for cAMP production in HEK-293 cells: HEK-293 cells stably expressing modified GPR119, test compounds 0.2 nM to 10 μM, one-hour incubation at ambient temperature; for Fold over baseline: increase in cAMP relative to basal levels, agonist activity if 1.5-fold or greater. Put shortly: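 Doxycycline-induced (1 μg/mL, overnight) HEK-293 cells expressing modified GPR119 were thawed, 2000 cells/well, and exposed to compounds (0.2 nM-10 μM final, 0.5% DMSO) for 1 h at ambient temperature in HBSS/HEPES/BSA. cAMP was measured by LANCE TR-FRET against a standard curve. Agonism was defined as ≥1.5-fold over basal.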
A general note: Changes in cAMP serve as a functional read-out for many G protein-coupled receptors.

This is an account of results in US8754226B2, “Piperidinyl-substituted lactams as GPR119 modulators” (Array BioPharma Inc., priority 2010, dated 2014).

Structures are written as SMILES.

Regarding `CS(=O)(=O)c1cc(F)c(N[C@H]2CCCCN(C3CCN(c4cnccn4)CC3)C2=O)cc1F.Cl` [Example 83, (S)-3-(2,5-difluoro-4-(methylsulfonyl)phenylamino)-1-(1-(pyrazin-2-yl)piperidin-4-yl)azepan-2-one hydrochloride], the “cAMP production in HEK-293 cells” value came to 13.0 nmol and the Fold over baseline is recorded as 2.9.
On to `CS(=O)(=O)c1cc(F)c(N[C@H]2CCCCN(C3CCN(c4cncc(Cl)n4)CC3)C2=O)cc1F.Cl` [Example 84, (S)-1-(1-(6-chloropyrazin-2-yl)piperidin-4-yl)-3-(2,5-difluoro-4-(methylsulfonyl)phenylamino)azepan-2-one hydrochloride], for which the “cAMP production in HEK-293 cells” value was determined as 6.3 nmol and the Fold over baseline was 1.8.
On the same counts, the results for `CS(=O)(=O)c1cc(F)c(N[C@H]2CCCCN(C3CCN(c4nccnc4C#N)CC3)C2=O)cc1F.Cl` [Example 85, (S)-3-(4-(3-(2,5-difluoro-4-(methylsulfonyl)phenylamino)-2-oxoazepan-1-yl)piperidin-1-yl)pyrazine-2-carbonitrile hydrochloride] are 6.5 nmol and 1.9.
On to `CC(C)c1cnc(N2CCC(N3CCC(Oc4cc(F)c(S(C)(=O)=O)cc4F)C3=O)CC2)nc1` (centres unmarked) [Example 86, 3-(2,5-difluoro-4-(methylsulfonyl)phenoxy)-1-(1-(5-isopropylpyrimidin-2-yl)piperidin-4-yl)pyrrolidin-2-one], for which the “cAMP production in HEK-293 cells” value stood at 5.9 nmol and the Fold over baseline is 1.9.
On to `CCc1cnc(N2CCC(N3CCC(Oc4cc(F)c(S(C)(=O)=O)cc4F)C3=O)CC2)nc1` (centres unmarked) [Example 87, 3-(2,5-difluoro-4-(methylsulfonyl)phenoxy)-1-(1-(5-ethylpyrimidin-2-yl)piperidin-4-yl)pyrrolidin-2-one trifluoroactetate], for which the “cAMP production in HEK-293 cells” value was 5.5 nmol and the Fold over baseline is recorded as 1.8.
`CS(=O)(=O)c1cc(F)c(OC2CCN(C3CCN(c4ncc(-c5ccccc5)cn4)CC3)C2=O)cc1F` (centres unmarked) [Example 88, 3-(2,5-difluoro-4-(methylsulfonyl)phenoxy)-1-(1-(5-phenylpyrimidin-2-yl)piperidin-4-yl)pyrrolidin-2-one trifluoroactetate]: the “cAMP production in HEK-293 cells” value was determined as 9.1 nmol and the Fold over baseline was found to be 2.4.
With `CCc1cnc(N2CCC(N3CC[C@H](Nc4ccc(S(C)(=O)=O)cc4F)C3=O)CC2)cn1` [Example 89, (S)-1-(1-(5-ethylpyrazin-2-yl)piperidin-4-yl)-3-(2-fluoro-4-(methylsulfonyl)phenyl-amino)pyrrolidin-2-one trifluoroactetate], the “cAMP production in HEK-293 cells” value turned out to be 23.1 nmol and the Fold over baseline worked out at 4.8.
On the same counts, the results for `CS(=O)(=O)c1cc(F)c(O[C@H]2CCN(C3CCN(c4ncc(Br)cn4)CC3)C2=O)cc1F` [Example 90, (S)-1-(1-(5-bromopyrimidin-2-yl)piperidin-4-yl)-3-(2,5-difluoro-4-(methylsulfonyl)phenoxy)pyrrolidin-2-one] are 11.7 nmol and 2.7.
`CS(=O)(=O)c1ccc(O[C@H]2CCN(C3CCN(c4cnc(Cl)cn4)CC3)C2=O)c(F)c1` [Example 91, (S)-1-(1-(5-chloropyrazin-2-yl)piperidin-4-yl)-3-(2-fluoro-4-(methylsulfonyl)phenoxy)pyrrolidin-2-one]: the “cAMP production in HEK-293 cells” value came out at 38.0 nmol and the Fold over baseline was 3.9.
On to `CS(=O)(=O)c1cc(F)c(O[C@H]2CCN(C3CCN(c4ncc(-c5ccccc5)cn4)CC3)C2=O)cc1F` [Example 92, S-3-(2,5-difluoro-4-(methylsulfonyl)phenoxy)-1-(1-(5-phenylpyrimidin-2-yl)piperidin-4-yl)pyrrolidin-2-one], for which the “cAMP production in HEK-293 cells” value is 16.6 nmol and the Fold over baseline is reported as 3.0.
For `Cc1ccccc1-c1cnc(N2CCC(N3CC[C@H](Oc4cc(F)c(S(C)(=O)=O)cc4F)C3=O)CC2)nc1` [Example 93, (S)-3-(2,5-difluoro-4-(methylsulfonyl)phenoxy)-1-(1-(5-o-tolylpyrimidin-2-yl)piperidin-4-yl)pyrrolidin-2-one] the same measures were 11.1 nmol and 2.2.
On the same counts, the results for `CS(=O)(=O)c1cc(F)c(O[C@H]2CCN(C3CCN(c4ncc(-c5ccccn5)cn4)CC3)C2=O)cc1F` [Example 94, (S)-3-(2,5-difluoro-4-(methylsulfonyl)phenoxy)-1-(1-(5-(pyridin-2-yl)pyrimidin-2-yl)piperidin-4-yl)pyrrolidin-2-one] are 6.9 nmol and 2.0.
On the same counts, the results for `CS(=O)(=O)c1cc(F)c(O[C@H]2CCN(C3CCN(c4ncc(-c5ncccn5)cn4)CC3)C2=O)cc1F` [Example 95, (S)-1-(1-(2,5′-bipyrimidin-2′-yl)piperidin-4-yl)-3-(2,5-difluoro-4-(methylsulfonyl)phenoxy)pyrrolidin-2-one] are 9.0 nmol and 2.3.
As to `CCc1cnc(N2CCC(N3CC[C@H](Oc4cc(C)c(S(C)(=O)=O)cc4F)C3=O)CC2)nc1` [Example 96, (S)-1-(1-(5-ethylpyrimidin-2-yl)piperidin-4-yl)-3-(2-fluoro-5-methyl-4-(methylsulfonyl)phenoxy)pyrrolidin-2-one], the “cAMP production in HEK-293 cells” value came out at 31.7 nmol and the Fold over baseline is listed as 3.5.
On to `CCc1cnc(N2CCC(N3CC[C@H](Oc4cc(C)c(Br)cc4F)C3=O)CC2)nc1` [Example 97, (S)-3-(4-bromo-2-fluoro-5-methylphenoxy)-1-(1-(5-ethylpyrimidin-2-yl)piperidin-4-yl)pyrrolidin-2-one], for which the “cAMP production in HEK-293 cells” value was found to be 15.3 nmol and the Fold over baseline is 2.2.
For `CCc1cnc(N2CCC(N3CC[C@H](Oc4cc(C)c(C#N)cc4F)C3=O)CC2)nc1` [Example 98, (S)-4-(1-(1-(5-ethylpyrimidin-2-yl)piperidin-4-yl)-2-oxopyrrolidin-3-yloxy)-5-fluoro-2-methylbenzonitrile], the “cAMP production in HEK-293 cells” value was determined as 31.2 nmol and the Fold over baseline was 3.5.
On to `CS(=O)(=O)c1ccc(N[C@H]2CCN(C3CCN(c4ccc(C(F)(F)F)cn4)CC3)C2=O)c(F)c1` [Example 99, (S)-3-(2-fluoro-4-(methyl-sulfonyl)phenylamino)-1-(1-(5-(trifluoromethyl)pyridin-2-yl)piperidin-4-yl)pyrrolidin-2-one], for which the “cAMP production in HEK-293 cells” value turned out to be 12.4 nmol and the Fold over baseline turned out to be 3.5.
For `CS(=O)(=O)c1cc(F)c(N[C@H]2CCN(C3CCN(c4ccc(C(F)(F)F)cn4)CC3)C2=O)cc1F` [Example 100, (S)-3-(2,5-difluoro-4-(methylsulfonyl)phenylamino)-1-(1-(5-(trifluoromethyl)pyridin-2-yl)piperidin-4-yl)pyrrolidin-2-one], the “cAMP production in HEK-293 cells” value turned out to be 8.4 nmol and the Fold over baseline amounted to 2.6.
For `CS(=O)(=O)c1cc(F)c(N[C@H]2CCN(C3CCN(c4ccc(C(F)(F)F)cn4)CC3)C2=O)c(F)c1` [Example 101, (S)-3-(2,6-difluoro-4-(methylsulfonyl)phenylamino)-1-(1-(5-(trifluoromethyl)pyridin-2-yl)piperidin-4-yl)pyrrolidin-2-one], the “cAMP production in HEK-293 cells” value is 6.6 nmol and the Fold over baseline came to 2.0.
Consider `CS(=O)(=O)c1ccc(N[C@H]2CCN(C3CCN(c4ncc(C(F)(F)F)cc4Cl)CC3)C2=O)c(F)c1` [Example 102, (S)-1-(1-(3-chloro-5-(trifluoromethyl)pyridin-2-yl)piperidin-4-yl)-3-(2-fluoro-4-(methylsulfonyl)phenylamino) pyrrolidin-2-one], for which the “cAMP production in HEK-293 cells” value turned out to be 15.5 nmol and the Fold over baseline is 3.4.
Take `CS(=O)(=O)c1ccc(N[C@H]2CCN(C3CCN(c4ccc(C(F)(F)F)cn4)CC3)C2=O)c(F)c1` [Example 103, (S)-3-(2-fluoro-4-(methyl-sulfonyl)phenylamino)-1-(1-(5-(trifluoromethyl)pyridin-2-yl)piperidin-4-yl)pyrrolidin-2-one]: the “cAMP production in HEK-293 cells” value is 15.4 nmol and the Fold over baseline was determined as 2.7.
Take `CS(=O)(=O)c1cc(F)c(N[C@H]2CCN(C3CCN(c4ccc(C(F)(F)F)cn4)CC3)C2=O)cc1F` [Example 104, (S)-3-(2,5-difluoro-4-(methylsulfonyl)phenyl-amino)-1-(1-(5-(trifluoro-methyl)pyridin-2-yl)piperidin-4-yl)pyrrolidin-2-one]: the “cAMP production in HEK-293 cells” value was determined as 13.5 nmol and the Fold over baseline is 2.8.
On to `CS(=O)(=O)c1cc(F)c(N[C@H]2CCN(C3CCN(c4ccc(C(F)(F)F)cn4)CC3)C2=O)c(F)c1` [Example 105, (S)-3-(2,6-difluoro-4-(methylsulfonyl)phenyl-amino)-1-(1-(5-(trifluoromethyl)pyridin-2-yl)piperidin-4-yl)pyrrolidin-2-one], for which the “cAMP production in HEK-293 cells” value came to 11.5 nmol and the Fold over baseline was 1.6.
On to `CS(=O)(=O)c1ccc(N[C@H]2CCN(C3CCN(c4cnccn4)CC3)C2=O)c(F)c1` [Example 106, (S)-3-(2-fluoro-4-(methylsulfonyl)phenyl-amino)-1-(1-(pyrazin-2-yl)piperidin-4-yl)pyrrolidin-2-one], for which the “cAMP production in HEK-293 cells” value stood at 17.8 nmol and the Fold over baseline amounted to 3.0.
Regarding `CS(=O)(=O)c1ccc(N[C@H]2CCN(C3CCN(c4ncc(C(F)(F)F)cc4Cl)CC3)C2=O)c(F)c1` [Example 107, (S)-1-(1-(3-chloro-5-(trifluoromethyl)pyridin-2-yl)piperidin-4-yl)-3-(2-fluoro-4-(methylsulfonyl)phenylamino)pyrrolidin-2-one], the “cAMP production in HEK-293 cells” value worked out at 20.9 nmol and the Fold over baseline is on record as 3.2.
